The source of these data is US20120101147A1, “INHIBITION OF HDAC2 TO PROMOTE MEMORY” (The General Hospital Corporation d/b/a Massachusetts …, priority 2008, published 2012).

“Also recorded” adds a separate entry of the source.

For data set [1], the system named is mice. Nature of the data set: Context-dependent fear conditioning memory test. The format is in vivo, mouse. As to the method:
Fear conditioning tests Context-dependent fear conditioning. Training consists of a 3 min exposure of mice to the conditioning box (context) followed by a foot shock (2 sec, 0.5/0.8/1.0 mA, constant current). The memory test was performed 24 hr later by re-exposing the mice for 3 min into the conditioning context. Freezing, defined as a lack of movement except for heart beat and respiration associated with a crouching posture, was recorded every 10 sec by two trained observers (one was unaware of the experimental conditions) during 3 min (a total of 18 sampling intervals). The number of observations indicating freezing obtained as a mean from both observers was expressed as a percentage of the total number of observations.
Chemical administration Suberoylanilide hydroxamic acid (SAHA) was synthesized as described previously in WO 93/07148 PTC/US92/08454. Sodium butyrate was purchased from Sigma (cat.B5887). SAHA and WT-161 were dissolved in DMSO as stock solutions and diluted in saline just before injection. Sodium butyrate was prepared in saline. Mice received intraperitoneal injection daily with either SAHA or saline for 10 days or 21 days.
C57/BL6 WT mice were injected with vehicle or BRD-6929 for 10 days. On day 11, mice were trained in contextual fear conditioning paradigm (Training consisted of a 3 min exposure of mice to the conditioning box (context, TSE) followed by a foot shock (2 sec, 0.8 mA, constant current). One hour after training, mice were injected with BRD-6929 or vehicle. On day 12, mice were returned to the training box and the freezing behavior were monitored and recorded.

The subject of data set [2] is CA1 region of hippocampus. Briefly: Golgi staining and synaptophysin immunostaining of hippocampal CA1. In kind it is in vivo, mouse. The method, then:
Memory test for mice with contextual fear conditioning training (foot shock 1.0 mA). HDAC2OE mice (SAHA group, n=12; saline group, n=12) and WT littermates (SAHA group, n=12; saline group, n=15) were treated with saline or SAHA (25 mg/kg, i.p.) for 10 days before memory test. b. CA1 region (pyramidal neuron layer; stratum radiatum (s.r.)) from WT and HDAC2OE mice received chronic SAHA treatment or saline treatment and were observed through immunostaining. Average optical signals for Ac-lysine were measured on pyramidal neuron layer; SVP signals were measured from s.r. c. Images of Golgi staining from CA1 region of hippocampus. For WT, naive, n=23; WT, SAHA, n=41; HDAC2OE, naïve, n=21; HDAC2OE, SAHA, n=32. Scale bar 10 μm. d. Memory test for mice with contextual fear conditioning training (foot shock 0.5 mA) after 10 day SAHA injection (25 mg/kg, i.p.). WT mice (SAHA, n=10; saline, n=10) and HDAC2 KO mice (SAHA, n=8; saline, n=8). e. CA1 region from HDAC2KO mice received chronic SAHA treatment or saline treatment and were observed through immunostaining. SVP-singles were quantified in the s.r. Saline, n=15; SAHA, n=22. Scale bar=50 μm. f. Images of Golgi staining of CA1 region of hippocampus from HDAC2KO mice. HDAC2KO, SAHA, n=24; HDAC2KO, naïve, n=27. *, p<0.05; **, p<0.005; ***,p<0.001, unpaired student t-test error bars indicate s.e.m.
Golgi impregnation Golgi-Cox-stained brains were cut to 200 μm thick cross-sections with vibratome and analyzed using a Zeiss 200 Axiovert microscope and Openlab software. The number of apical and basal spines on hippocampal CA1 pyramidal neurons was counted blind to the genotype. For each experimental group, a minimum of 10 cells per slice (animal number n=3) were analyzed. CA1 hippocampal neurons within the region −1.4 mm to −1.6 mm (relative to the bregma position) were included for the analysis.
Immunohistochemistry Immunohistochemical analysis was performed as described before (Guan, J. S., et al., Cell, 2005. 122(4): p. 619-31.). Antibodies were used in a 1:1000 concentration. […] Staining was quantified using LSMetal0 software (Zeiss).

Data set [3] deals with hippocampus. Briefly: Long-term potentiation (LTP) in hippocampal slices of treated mice. The format is in vivo, mouse. The following applies: 25 mg/kg i.p. 10 days, one HFS 1×100 Hz. As to the method:
FIG. 6 SAHA treatment facilitates LTP in WT but not HDAC2KO hippocampus. a-b. One-month-old HDAC2KO mice and their WT littermates were injected with SAHA (25 mg/kg, i.p.) or saline for 10 days. An additional injection was introduced 30 minutes before sacrifice. Long-term potentiation (LTP) was induced by one HFS stimulation (1×100 Hz, 1 s) of Schaffer collaterals. a. […] (**, p<0.005, two-way ANOVA).
Electrophysiological analysis. 3-6 months old HDAC2OE, HDAC2KO or their littermates were killed by cervical dislocation, and hippocampi were rapidly dissected in iced oxygenated artificial CSF (ACSF). Transverse hippocampal slices, 400 μm thick were placed in a chamber and continuously perfused with oxygenated ACSF. A bipolar stimulating electrodes (0.002-inch-diameter nichrome wire; A-M Systems) placed in the stratum radiatum was used to elicit action potentials in CA3 axons. An ACSF-filled glass microelectrode with a resistance between 0.5 and 3 MΩ was placed in the stratum radiatum region of CA1 and was used to record the field excitatory post-synaptic potentials (fEPSP). Data were acquired using HEKA EPC10 and analyzed by patchmaster (HEKA). […] Baseline responses were recorded for 20 min. fEPSP were evoked at the CA1 synapses by stimulating Schaffer collaterals at a low frequency (2 per min) to establish a stable baseline. […]

In data set [4] the test system is tetra-acetylated H4. Briefly: Western blot of tetra-acetylated H4 in primary striatal cells. The following applies: relative to DMSO controls. In kind it is cell-based, mouse. As to the method:
(§1) Four compounds were tested including CI-994 (BRD-3696) and SAHA. […] BRD-6929 and BRD-5298 treatment results in a 2-5 fold increase in both marks at 1 and 10 uM.

For data set [5], the system named is tetra-acetylated H2B. Briefly: Western blot of tetra-acetylated H2B in primary striatal cells. In kind it is cell-based, mouse. The following applies: relative to DMSO controls. The method, then: as §1
Data set [6] concerns primary neuronal cultures. Briefly: Immunofluorescence: overall cell number in primary neuronal cultures. In kind it is cell-based, mouse. The following applies: 1 and 10 uM; 6 h; primary neuronal cell cultures. The method, then: (§2) 1) Compounds were pin transferred from 384-well plates (Abgene) using a 185 nl pin tool using a no touch bottom protocol.
(§3) 1) Media was aspirated using a plate washer (Tecan) protocol that leaves ˜5 ul residual volume and without touching the bottom of plates); or alternatively, wells were gently aspirated to remove media with 12-channel aspirator wand.
(§4) 2) A multichannel pipet or use liquid handling system (e.g. Combi, standard tubing; slow speed) was used to add 75 ul formaldehyde (4% in PBS) and wells incubated 10 min at room temperature.
(§5) 3) Formaldehyde was aspirated and cells rinsed 3 times with 100 ul PBS;
(§6) 4) PBS was aspirated and 100 ul blocking/permeablization buffer (0.1% Triton-X100, 2% BSA, in PBS) added and wells incubate 1 hour at room temperature.
(§7) 5) Blocking buffer was aspirated and 50 ul primary antibody diluted 1:500 in blocking buffer was added and wells incubated overnight at 4 degrees.
(§8) 1) Primary antibody was aspirated and wells rinsed 3 times with 100 ul blocking buffer
(§9) 2) 50 ul of secondary antibody diluted 1:500 and with Hoeschst (1:1000 from 10 mg/mL (16 mM) stock) added and wells incubated 1.5 hours at room temperature covered in foil to prevent photobleaching.
(§10) 3) Wells were rinsed 3 times with 100 ul PBS, and a 100 uls of PBS added and the plates, sealed
(§11) 4) Plates were then read on Acumen/IX Micro

For data set [7], the system named is H2B acetylation. Nature of the data set: Immunofluorescence: H2B acetylation in primary neuronal cell cultures. The following applies: 1 and 10 uM; 6 h; primary neuronal cell cultures. In kind it is cell-based, mouse. The method, then: as §2, §3, §4, §5, §6, §7, §8, §9, §10, §11
Data set [8] concerns the target T1, HDAC6 (Homo sapiens, UniProt Q9UBN7).
T1 sequence (Q9UBN7 1-1215): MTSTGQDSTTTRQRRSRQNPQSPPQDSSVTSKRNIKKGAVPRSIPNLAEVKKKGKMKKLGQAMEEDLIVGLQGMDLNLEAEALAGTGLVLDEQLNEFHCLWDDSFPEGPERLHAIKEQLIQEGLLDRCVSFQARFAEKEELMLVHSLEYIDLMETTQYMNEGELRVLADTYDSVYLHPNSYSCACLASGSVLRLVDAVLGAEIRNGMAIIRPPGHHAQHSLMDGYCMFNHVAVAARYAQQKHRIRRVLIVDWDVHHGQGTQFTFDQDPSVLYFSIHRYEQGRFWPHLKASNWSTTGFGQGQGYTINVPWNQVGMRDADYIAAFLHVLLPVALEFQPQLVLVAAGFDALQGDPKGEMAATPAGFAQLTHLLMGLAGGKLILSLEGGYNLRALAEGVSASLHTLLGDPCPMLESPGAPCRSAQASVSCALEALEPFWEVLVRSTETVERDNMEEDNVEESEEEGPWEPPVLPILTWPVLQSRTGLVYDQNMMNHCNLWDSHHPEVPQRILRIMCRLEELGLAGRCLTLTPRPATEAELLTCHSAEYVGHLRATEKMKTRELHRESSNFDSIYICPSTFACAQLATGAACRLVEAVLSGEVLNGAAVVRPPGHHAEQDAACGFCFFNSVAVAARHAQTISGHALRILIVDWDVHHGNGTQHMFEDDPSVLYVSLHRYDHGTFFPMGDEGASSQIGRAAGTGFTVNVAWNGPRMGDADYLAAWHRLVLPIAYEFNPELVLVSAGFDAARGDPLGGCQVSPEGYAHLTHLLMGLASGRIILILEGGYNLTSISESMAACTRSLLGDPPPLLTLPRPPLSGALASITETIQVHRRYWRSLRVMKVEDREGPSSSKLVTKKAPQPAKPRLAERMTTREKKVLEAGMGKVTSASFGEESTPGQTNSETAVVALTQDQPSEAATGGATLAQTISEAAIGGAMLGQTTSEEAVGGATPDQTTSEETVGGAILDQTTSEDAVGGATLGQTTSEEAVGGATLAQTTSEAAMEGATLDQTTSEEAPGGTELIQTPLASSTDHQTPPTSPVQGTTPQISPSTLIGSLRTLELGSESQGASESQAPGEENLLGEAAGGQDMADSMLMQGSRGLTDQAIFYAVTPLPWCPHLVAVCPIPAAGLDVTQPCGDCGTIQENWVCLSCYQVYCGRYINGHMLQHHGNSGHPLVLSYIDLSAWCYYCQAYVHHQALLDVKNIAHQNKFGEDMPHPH
The following applies: cited from earlier work.

For data set [9], the system named is c-fos. Nature of the data set: c-fos positive cells after fear conditioning training. In kind it is in vivo, mouse. The following applies: compared to saline treated group. From the text:
Studies described in the Examples below were also undertaken to determine which of the 11 histone deacetylases is responsible for the observed function and to identify selective HDAC inhibitors for enhancing memory. […] Remarkably, HDAC2 neuron specific knockout mice (loss of function) display enhanced learning. […] Thus it was unexpected that HDAC1/HDAC2 inhibitors would be useful for enhancing memory.

Where [10] appears, read: HDAC2KO mice, chronic treatment.

With `O=C(CCCCCCC(=O)Nc1ccccc1)NO` [SAHA, suberoylanilide hydroxamic acid], the freezing behavior in data set [1] (HDAC2KO mice, 25 mg/kg i.p. 10 days, foot shock 0.5 mA, n=8) is recorded as 52.1±9.8%; in data set [1] (HDAC2OE mice, 25 mg/kg i.p. daily 10 days, foot shock 1.0 mA, n=12) it was 66.7±5.1%; in data set [1] (WT control mice, 25 mg/kg i.p. 10 days, foot shock 0.5 mA, n=10), 45.0±6.9%; in data set [1] (WT control mice, 25 mg/kg i.p. daily 10 days, foot shock 1.0 mA, n=12), 63.9±4.2%. Further, in [2] (setting [10]), the “dendritic spine density of CA1 neurons” value is recorded as “not significantly affected”. Moreover, the “synaptophysin staining in the stratum radiatum” value in [2] (setting [10]) is given as “not significantly affected”. In [2] (HDAC2OE mice, chronic treatment 25 mg/kg i.p.), the “decreased dendritic spine and synapses phenotype” value is listed as “completely abrogated”. Also, the values for the LTP entry in [3] (HDAC2 KO hippocampus) and in [3] (WT hippocampus) were “did not have a detectable effect; also recorded: No significant difference” and “modestly increased; also recorded: significant increase”, respectively.

In the case of `CN1CCN(CCNC(=O)c2ccc(C(=O)Nc3cc(-c4cccs4)ccc3N)cc2)CC1` [BRD-5298, N1-(2-amino-5-(thiophen-2-yl)phenyl)-N4-(2-(4-methylpiperazin-1-yl)ethyl)terephthalamide], in [4], the “tetra-acetylated H4” value was “significantly increased”. Besides, in data set [5], the “tetra-acetylated H2B” value is on record as “trend toward increasing”. Moreover, the overall cell number entry in [6] is on record as “do not cause an increase or decrease”. For the same compound, the H2B acetylation result in data set [7] is “significant increase”.

Take `CCCC(=O)[O-].[Na+]` [SB, sodium butyrate]: the “inhibition of HDAC6 activity in vitro” value in [8] is “does not inhibit”.

As to `Nc1ccccc1NC(=O)c1ccc(CNC(=O)OCc2cccnc2)cc1` [MS-275], the “associative learning in mice” value in data set [1] (mouse, in vivo) is listed as “did not facilitate”. Further, in data set [9], the “number of c-fos positive cells after fear conditioning training” value is on record as “lower number”.
